Source: article PMC9820303, “^αN-Acetyl β-Endorphin Is an Endogenous Ligand of σ1Rs That Regulates Mu-Opioid Receptor Signaling by Exchanging G Proteins for σ2Rs in σ1R Oligomers” (International Journal of Molecular Sciences, 2022)

Columns and labels:
[1] = test system: CCI CD1 mice; assay: Chronic sciatic nerve constriction injury (CCI), mechanical allodynia, von Frey test; assay type: in vivo, mouse
Procedure: Implication of σ1Rs. […] Upper panel: the withdrawal thresholds of the contralateral and ipsilateral paws were measured before (indicated as 0) and up to 14 days after surgery. […] Middle panel: 0.3 and 3 nmol of ^αN-acetyl β-End 1–31 were administered icv 7 days after surgery, and the nociceptive threshold was evaluated at the indicated postinjection intervals (in minutes). For every time interval studied in min or days, * indicates a significant difference from the group that received saline instead of ^αN-acetyl β-End 1–31; ϕ significant difference from the effect of 3 nmol ^αN-acetyl β-End 1–31. […] All data are presented as the mean ± SD of six mice. ANOVA followed by the Holm–Sidak multiple comparisons test, p < 0.05, 1-β > 0.80. […] Upper panel: wild-type mice were injected icv with saline, ^αN-acetyl β-End 1–31 (1 nmol/mouse) or the combination of the σ1R agonist PPCC (3 nmol/mouse) plus ^αN-acetyl β-End 1–31 20 min before morphine and β-End 1–31. Analgesia was evaluated by the warm water (52 °C) tail-flick test at the interval postinjection corresponding to their peak effect, 30 min. Lower panel: σ1R^−/− mice received 1 nmol ^αN-acetyl β-End 1–31, 20 min before morphine and β-End 1–31 and analgesia was evaluated as described above. Eight mice were used per strain and treatment. * Significant difference with respect to the group treated with morphine or β-End 1–31 alone. ANOVA followed by the Holm–Sidak multiple comparisons test, p < 0.05, 1-β > 0.80.
After the basal mechanical sensitivity of the mice was tested, neuropathic pain was induced by chronic sciatic nerve constriction injury (CCI) surgery under isoflurane/oxygen anesthesia using the procedure described by Bennett and Xie with modifications. Briefly, a 0.5 cm incision was made in the right midthigh, the biceps femoris muscle was separated, and the sciatic nerve was exposed proximal to its trifurcation. Two ligatures (5/0 braided silk suture; Lorca Marin, Murcia, Spain, 70,014) were tied around this nerve approximately 1 mm apart until a short flick of the ipsilateral hind limb was observed. The incision was then closed in layers with a 4–0 Ethicon silk suture. The same procedure was used for sham surgery, except that the sciatic nerve was exposed but not ligated. The tactile pain threshold of both the ipsilateral and contralateral hind paws was then assessed before and on different days post-surgery. The mice were individually placed in a transparent plastic cage with a wire-mesh bottom that allowed full access to the paws. After a habituation period of 20 min, a mechanical stimulus was delivered to the plantar surface from below the floor of the test chamber to measure allodynia using an automatic von Frey apparatus (Ugo Basile #37,450, Comerio, Italy). A steel rod (0.5 mm diameter) was pushed against the hind paw over a 10 s period as the force increased from 0 to 10 g. When the mouse withdrew its hind paw, the mechanical stimulus was automatically stopped, and the force at which withdrawal occurred was recorded. At each time point, three separate threshold measurements were obtained from each hind paw and then averaged.

[2] = target: T1, σ1R oligomers-σ2R (Mus musculus, UniProt O55242); assay: Ex vivo fishing assay: σ1R and σ2R of mouse cerebral cortex bound to agarose-σ1R oligomers; assay type: biochemical; settings: wild-type mouse cerebral cortex SBM; n = 3
T1 construct: The coding region of the full-length murine σ1R (AF004927); GST (N); made in house; host or cells: E. coli BL21 (KRX) for the σ1R bait; σ2R and further σ1R come from solubilised mouse cerebral cortex synaptosomes
T1 sequence (O55242 whole entry): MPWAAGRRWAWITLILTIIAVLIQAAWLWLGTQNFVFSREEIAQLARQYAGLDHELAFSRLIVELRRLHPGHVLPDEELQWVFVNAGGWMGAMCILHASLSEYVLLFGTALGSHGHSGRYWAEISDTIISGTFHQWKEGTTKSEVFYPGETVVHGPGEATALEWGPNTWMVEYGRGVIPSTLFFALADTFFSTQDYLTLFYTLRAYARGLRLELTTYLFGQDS
Procedure: (B) Θ-σ1R captured G proteins in CD1 wild-type and σ2R^−/− SBM. Ex vivo fishing assays were performed as described in Figure 4C. The data from σ2R^−/− solubilized cortical tissue were referred to the wild-type control (arbitrary value of 1). (C) The σ1R oligomers captured G proteins from σ2R^−/− mouse SBM. For each Gα subunit and the σ1R, the immunosignals in the absence of the acetylated peptide were the controls (C, value of 1). […] (A,B,D,E) Data are the mean ± SD, n = 3. Data were analyzed by pairwise Holm–Sidak multiple comparison tests following ANOVA: p < 0.05, 1-β > 0.80.
For fishing studies, solubilization of neural synaptosomes from cerebral cortices or PAG was carried out at 4 °C in RIPA buffer. The membranes were incubated at 4 °C for 16 h with agitation, and then centrifuged at 10,000× g for 5 min. The supernatant was cleared with 20 μL of Sepharose 4B (#17-0120-01, GE Healthcare) pre-equilibrated for 1 h at 4 °C, followed by centrifugation at 4300× g for 5 min. The σ1R was immobilized through covalent attachment to N-Hydroxysuccinimide (NHS)-activated Sepharose 4 fast flow (4FF, #17-0906-01; GE) according to the manufacturer’s instructions. […]

[3] = test system: MORs; settings: tritiated naloxone and morphine, mouse brain synaptosomes; cited from earlier work
Excerpt: (§1) ^αN-acetyl β-End 1–31 prevented or alleviated a series of negative symptoms in animals, such as the brain injury caused by pMCAO, the convulsive syndrome promoted by icv-injection of NMDA, and mechanical allodynia caused by unilateral sciatic nerve CCI.

[4] = test system: [^125I]-Tyr^27 β-End 1–31 binding site (probably the σ1R site); settings: 5 pM [125I]-Tyr27 β-End 1–31; cited from earlier work
Excerpt: as §1

[5] = test system: CD1 mice (wild-type and σ1R−/−); settings: single icv dose; cited from earlier work

| Molecule | effect on mechanical allodynia, 0.3 nmol ([1]; 0.3 nmol icv 7 days after CCI surgery, von Frey, 6 mice) | effect on mechanical allodynia, 3 nmol ([1]; 3 nmol icv 7 days after CCI surgery, von Frey, 6 mice) | duration of clear protection ([1]; higher dose (3 nmol icv), partial protection for an additional 24 h) [h] | time after icv administration at which the beneficial effect was observed ([1]; icv, 7 days after CCI surgery) [min] | effect on σ1R oligomerization and σ2R presence at the agarose-σ1R bait [2] | affinity to MORs [3] | fraction of [^125I]-Tyr^27 β-End 1–31 specific binding abolished [4] | duration of the effect of a single dose on analgesia [5] [h] | effect on the antiallodynic action of ^αN-acetyl β-End 1–31 ([1]; 3 nmol icv together with 3 nmol ^αN-acetyl β-End 1–31) |
| --- | --- | --- | --- | --- | --- | --- | --- | --- | --- |
| ^αN-acetyl β-End 1–31: β-End 1–31 acetylated at N terminal Y1, α position | significantly reduced mechanical allodynia | practically restored the von Frey response to the levels observed presurgery | 24 | 10 to 15 | reduces the extent of σ1R oligomerization, and increases the association of σ2Rs with the bait | μM range | 20–30% | 24 |  |
| Cl.O=C(OCCN1CCOCC1)C1(c2ccccc2)CCCCC1 [PRE084, 2-(4-morpholinethyl)-1-phenylcyclohexanecarboxylate hydrochloride, reference compound] |  |  |  |  |  |  |  |  | prevented the β-End 1–31 ^αN-acetyl derivative from diminishing the response of CCI mice in the von Frey test |
